This note sets out measurements from patent US20240246937A1 (MERCK SHARP & DOHME LLC, priority 2021, published 2024).

Each structure is given as a SMILES string.

For the test, the target named is recombinant IL4I1 (Homo sapiens (Human), UniProt Q96RQ9). The test is described as follows: IL4I1 Enzymatic Assay (Amplex Red/HRP coupled fluorescence detection of H2O2). Type of test: biochemical. Conditions: 240 min; recombinant IL4I1, four-hour pre-incubation with compound. The gist of the method:
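Ten-point, 1:3 compound titrations were fitted by four-parameter sigmoidal regression to give EC50. Resorufin fluorescence (544/590 nm) from Amplex Red/HRP-coupled H2O2 detection was read 120 min after adding 1 mM each aromatic amino acid to 1 nM IL4I1, following a 4 h compound pre-incubation in pH 7.0 Hepes buffer.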

Sequence of recombinant IL4I1 (Q96RQ9 22-567): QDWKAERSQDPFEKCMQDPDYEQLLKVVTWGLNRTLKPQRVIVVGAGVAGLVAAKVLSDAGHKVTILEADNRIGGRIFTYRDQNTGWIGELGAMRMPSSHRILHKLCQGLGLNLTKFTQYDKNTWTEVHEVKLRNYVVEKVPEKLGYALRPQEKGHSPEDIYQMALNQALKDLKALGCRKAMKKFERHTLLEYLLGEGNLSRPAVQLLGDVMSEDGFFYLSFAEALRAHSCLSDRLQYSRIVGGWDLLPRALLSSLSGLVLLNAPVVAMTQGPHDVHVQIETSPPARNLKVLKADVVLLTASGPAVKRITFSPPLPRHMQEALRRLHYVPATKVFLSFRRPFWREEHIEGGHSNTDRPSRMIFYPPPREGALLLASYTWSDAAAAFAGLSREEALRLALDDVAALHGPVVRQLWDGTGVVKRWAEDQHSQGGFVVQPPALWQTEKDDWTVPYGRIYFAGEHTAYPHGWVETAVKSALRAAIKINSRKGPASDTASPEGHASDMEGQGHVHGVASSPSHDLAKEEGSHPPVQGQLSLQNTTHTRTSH

Usually EC50 stands for the midpoint of the concentration-response curve. `O=c1c(=O)n(C23CC(C2)C3)ccn1Cc1ccc(-n2ccnn2)nn1` [Example 404, 1-((6-(1H-1,2,3-triazol-1-yl)pyridazin-3-yl)methyl)-4-(bicyclo[1.1.1]pentan-1-yl)-1,4-dihydropyrazine-2,3-dione]: the EC50 came to 10 nM. For the compound `O=C1C(=O)N(C23CC(C2)C3)CCN1Cc1ncc(-n2nccn2)cc1F` [Example 405, 1-(bicyclo[1.1.1]pentan-1-yl)-4-((3-fluoro-5-(2H-1,2,3-triazol-2-yl)pyridin-2-yl)methyl)piperazine-2,3-dione], the EC50 was 23 nM.

As for `O=C1C(=O)N(C23CC(C2)C3)CCN1Cc1ccc(-n2nccn2)cc1` [Example 406, 1-(4-(2H-1,2,3-triazol-2-yl)benzyl)-4-(bicyclo[1.1.1]pentan-1-yl)piperazine-2,3-dione], the EC50 is 15 nM.

As for `O=C1C(=O)N(C23CC(C2)C3)CCN1Cc1ccc(-n2nccn2)cc1F` [Example 407, 1-(bicyclo[1.1.1]pentan-1-yl)-4-(2-fluoro-4-(2H-1,2,3-triazol-2-yl)benzyl)piperazine-2,3-dione], the EC50 came out at 27 nM.

`O=c1c(=O)n([C@H]2C[C@H]3C[C@H]3C2)ccn1Cc1ccc(-n2nccn2)cn1` [Example 408, 1-((5-(2H-1,2,3-triazol-2-yl)pyridin-2-yl)methyl)-4-((cis)-bicyclo[3.1.0]hexan-3-yl)-1,4-dihydropyrazine-2,3-dione]: the EC50 was determined as 8 nM.

In the case of `O=c1c(=O)n(C2CCC2)ccn1Cc1ccc(-n2nccn2)nc1` [Example 409, 1-((6-(2H-1,2,3-triazol-2-yl)pyridin-3-yl)methyl)-4-cyclobutyl-1,4-dihydropyrazine-2,3-dione], the EC50 is 9 nM. As for `O=c1c(=O)n(C2CCC2)ccn1Cc1ccc(-n2ccnn2)nc1` [Example 410, 1-((6-(1H-1,2,3-triazol-1-yl)pyridin-3-yl)methyl)-4-cyclobutyl-1,4-dihydropyrazine-2,3-dione], the EC50 was 5 nM. As to `O=c1c(=O)n(C23CC(C2)C3)ccn1Cc1ccc(-n2ccnn2)nc1` [Example 411, 1-((6-(1H-1,2,3-triazol-1-yl)pyridin-3-yl)methyl)-4-(bicyclo[1.1.1]pentan-1-yl)-1,4-dihydropyrazine-2,3-dione], the EC50 was 7 nM. Take `O=c1c(=O)n(C23CC(C2)C3)ccn1Cc1ccc(-n2nccn2)nc1` [Example 412, 1-((6-(2H-1,2,3-triazol-2-yl)pyridin-3-yl)methyl)-4-(bicyclo[1.1.1]pentan-1-yl)-1,4-dihydropyrazine-2,3-dione]: the EC50 is 19 nM. Regarding `N#CC1(n2ccn(Cc3ccc(-n4nccn4)cn3)c(=O)c2=O)CC1` [Example 413, 1-(4-((5-(2H-1,2,3-triazol-2-yl)pyridin-2-yl)methyl)-2,3-dioxo-3,4-dihydropyrazin-1(2H)-yl)cyclopropane-1-carbonitrile], the EC50 stood at 66 nM. As for `CC1(n2ccn(Cc3ccc(-n4ccnn4)nc3)c(=O)c2=O)CC1` [Example 414, 1-((6-(1H-1,2,3-triazol-1-yl)pyridin-3-yl)methyl)-4-(1-methylcyclopropyl)-1,4-dihydropyrazine-2,3-dione], the EC50 is 15 nM.

Consider `CC1(n2ccn(Cc3ccc(-n4nccn4)nc3)c(=O)c2=O)CC1` [Example 415, 1-((6-(2H-1,2,3-triazol-2-yl)pyridin-3-yl)methyl)-4-(1-methylcyclopropyl)-1,4-dihydropyrazine-2,3-dione], for which the EC50 turned out to be 138 nM. As to `O=c1c(=O)n([C@H]2C[C@H]3C[C@H]3C2)ccn1Cc1ccc(-c2cccnc2)nn1` [Example 416, 1-((cis)-bicyclo[3.1.0]hexan-3-yl)-4-((6-(pyridin-3-yl)pyridazin-3-yl)methyl)-1,4-dihydropyrazine-2,3-dione], the EC50 was 28 nM. `O=c1c(=O)n(C23CC(C2)C3)ccn1Cc1cc(-c2cccc(F)c2)on1` [Example 417, 1-(bicyclo[1.1.1]pentan-1-yl)-4-((5-(3-fluorophenyl)isoxazol-3-yl)methyl)-1,4-dihydropyrazine-2,3-dione]: the EC50 was 2 nM. Consider `O=C1C(=O)N(C23CC(C2)C3)CCN1Cc1cc(-c2ccc(F)cc2)on1` [Example 418, 1-(bicyclo[1.1.1]pentan-1-yl)-4-((5-(4-fluorophenyl)isoxazol-3-yl)methyl)piperazine-2,3-dione], for which the EC50 was 6 nM. Consider `O=c1c(=O)n(C23CC(C2)C3)ccn1Cc1cc(-c2ccc(F)cc2)on1` [Example 419, 1-(bicyclo[1.1.1]pentan-1-yl)-4-((5-(4-fluorophenyl)isoxazol-3-yl)methyl)-1,4-dihydropyrazine-2,3-dione], for which the EC50 amounted to 2 nM. For `CC1(n2ccn(Cc3cc(-c4ccccc4)on3)c(=O)c2=O)CCC1` [Example 420, 1-(1-methylcyclobutyl)-4-((5-phenylisoxazol-3-yl)methyl)-1,4-dihydropyrazine-2,3-dione], the EC50 amounted to 5 nM. With `CC1(n2ccn(Cc3cc(-c4cccc(F)c4)on3)c(=O)c2=O)CCC1` [Example 421, 1-((5-(3-fluorophenyl)isoxazol-3-yl)methyl)-4-(1-methylcyclobutyl)-1,4-dihydropyrazine-2,3-dione], the EC50 came out at 5 nM. As to `CC1(n2ccn(Cc3cc(-c4ccc(F)cc4)on3)c(=O)c2=O)CCC1` [Example 422, 1-((5-(4-fluorophenyl)isoxazol-3-yl)methyl)-4-(1-methylcyclobutyl)-1,4-dihydropyrazine-2,3-dione], the EC50 stood at 5 nM. With `N#Cc1ccc(-c2cc(CN3CCN(C45CC(C4)C5)C(=O)C3=O)no2)cc1` [Example 423, 4-(3-((4-(bicyclo[1.1.1]pentan-1-yl)-2,3-dioxopiperazin-1-yl)methyl)isoxazol-5-yl)benzonitrile] the figure was 19 nM; with `N#Cc1ccccc1-c1cc(CN2CCN(C34CC(C3)C4)C(=O)C2=O)no1` [Example 424, 2-(3-((4-(bicyclo[1.1.1]pentan-1-yl)-2,3-dioxopiperazin-1-yl)methyl)isoxazol-5-yl)benzonitrile], 19 nM. With `O=C1C(=O)N(C2CCC2)CCN1Cc1ncc(-c2cccc(F)c2)s1` [Example 425, 1-cyclobutyl-4-((5-(3-fluorophenyl)thiazol-2-yl)methyl)piperazine-2,3-dione] the figure was 8 nM.

Take `O=C1C(=O)N(C2CCC2)CCN1Cc1ncc(-c2ccccc2F)s1` [Example 426, 1-cyclobutyl-4-((5-(2-fluorophenyl)thiazol-2-yl)methyl)piperazine-2,3-dione]: the half-maximal effective concentration (EC50) was 5 nM. For `O=c1c(=O)n(C23CC(C2)C3)ccn1Cc1cn(-c2ccccn2)nn1` [Example 427, 1-(bicyclo[1.1.1]pentan-1-yl)-4-((1-(pyridin-2-yl)-1H-1,2,3-triazol-4-yl)methyl)-1,4-dihydropyrazine-2,3-dione], the EC50 turned out to be 19 nM.

For the compound `O=c1c(=O)n(C23CC(C2)C3)ccn1Cc1cn(-c2cccnc2)nn1` [Example 428, 1-(bicyclo[1.1.1]pentan-1-yl)-4-((1-(pyridin-3-yl)-1H-1,2,3-triazol-4-yl)methyl)-1,4-dihydropyrazine-2,3-dione], the EC50 was determined as 21 nM. As for `CC1(n2ccn(Cc3cn(-c4cccnc4)nn3)c(=O)c2=O)CC1` [Example 429, 1-(1-methylcyclopropyl)-4-((1-(pyridin-3-yl)-1H-1,2,3-triazol-4-yl)methyl)-1,4-dihydropyrazine-2,3-dione], the figure is 29 nM.
